# Test results as given in patent US4358441A, “Nicotinic derivatives of glucosamine and related pharmaceutical compositions” (Laboratorio Guidotti & C. S.p.A., priority 1980, dated 1982).
# What was measured:
# [1] = system: plasma levels of triglycerides; experiment: Effect of oral administration on plasma levels of triglycerides in the empty rat; assay type: in vivo, rat (COBS CD (SD) BR male); details: for Percent variations of plasma triglycerides with respect to the controls: empty rat; for Time within which the effect on triglycerides disappears: rat
# [2] = system: plasma levels of free glycerol; experiment: Effect of oral administration on plasma levels of free glycerol in the empty rat; assay type: in vivo, rat (COBS CD (SD) BR male); details: for Percent variations of plasma free glycerol with respect to the controls: empty rat; for Activity on free glycerol: 30 mg/kg oral; for Activity on free glycerol / Time within which the effect on free glycerol disappears: rat; for Time within which the effect on free glycerol disappears: 100 mg/kg oral
# [3] = system: plasma levels of cholesterol; experiment: Effect of oral administration on plasma levels of cholesterol in the empty rat; assay type: in vivo, rat (COBS CD (SD) BR male); details: for Percent variations of plasma cholesterol with respect to the controls: 100 mg/kg oral referred to nicotinic acid, empty rat
# rats of both sexes = experiment: Acute toxicity (LD50) in rats of both sexes, oral and intraperitoneal route; details: rat
# plasma levels of FFA = experiment: Effect of oral administration on plasma levels of FFA in the empty rat; details: for Percent variations of plasma FFA with respect to the controls: empty rat
# in vivo [4] = details: rat
# [5] = Plasma levels (kinetics) of free nicotinic acid after oral administration in the rat; details: 100 mg/kg p.o.
# [6] = Acute toxicity (LD50) in rats of both sexes, oral and intraperitoneal route; details: rat, in vivo, LD50, rat
# in vivo [7] = details: rat, po, 100 mg/kg
# [8] = 30 mg/kg oral referred to nicotinic acid, 1 h
# [9] = 30 mg/kg oral referred to nicotinic acid, 2 h
# [10] = 30 mg/kg oral referred to nicotinic acid, 4 h
# [11] = 30 mg/kg oral referred to nicotinic acid, 6 h
# [12] = 30 mg/kg oral referred to nicotinic acid, 8 h
# [13] = 30 mg/kg oral referred to nicotinic acid, 10 h
# [14] = 30 mg/kg oral referred to nicotinic acid, 12 h
# [15] = 30 mg/kg oral referred to nicotinic acid, 16 h
# [16] = 100 mg/kg oral referred to nicotinic acid, 2 h
# [17] = 100 mg/kg oral referred to nicotinic acid, 4 h
# [18] = 100 mg/kg oral referred to nicotinic acid, 6 h
# [19] = 100 mg/kg oral referred to nicotinic acid, 8 h
# [20] = 100 mg/kg oral referred to nicotinic acid, 10 h
# [21] = 100 mg/kg oral referred to nicotinic acid, 16 h
# [22] = 100 mg/kg oral referred to nicotinic acid, 24 h
# [23] = 100 mg/kg oral referred to nicotinic acid, 32 h
smiles,measurement,setting,value
"O=C(N[C@H]1C(OC(=O)c2cccnc2)O[C@H](COC(=O)c2cccnc2)[C@@H](OC(=O)c2cccnc2)[C@@H]1OC(=O)c1cccnc1)c1cccnc1 (stereo partly drawn) [GLUN, N-nicotinoyl-glucosamine tetranicotinate]",Percent variations of plasma triglycerides with respect to the controls,[1]; [8],-2%
same,Percent variations of plasma triglycerides with respect to the controls,[1]; [9],-45%
same,Percent variations of plasma triglycerides with respect to the controls,[1]; [10],-44%
same,Percent variations of plasma triglycerides with respect to the controls,[1]; [11],-41%
same,Percent variations of plasma triglycerides with respect to the controls,[1]; [12],-36%
same,Percent variations of plasma triglycerides with respect to the controls,[1]; [13],-62%
same,Percent variations of plasma triglycerides with respect to the controls,[1]; [14],-31%
same,Percent variations of plasma triglycerides with respect to the controls,[1]; [15],+31%
same,Time within which the effect on triglycerides disappears,[1]; 30 mg/kg oral,≤ 16 h
same,Percent variations of plasma triglycerides with respect to the controls,[1]; [16],-52%
same,Percent variations of plasma triglycerides with respect to the controls,[1]; [17],-65%
same,Percent variations of plasma triglycerides with respect to the controls,[1]; [18],-72%
same,Percent variations of plasma triglycerides with respect to the controls,[1]; [19],-75%
same,Percent variations of plasma triglycerides with respect to the controls,[1]; [20],-65%
same,Percent variations of plasma triglycerides with respect to the controls,[1]; [21],-67%
same,Percent variations of plasma triglycerides with respect to the controls,[1]; [22],3%
same,Percent variations of plasma triglycerides with respect to the controls,[1]; [23],+13%
same,Time within which the effect on triglycerides disappears,[1]; 100 mg/kg oral,within the twenty fourth hour
same,Percent variations of plasma free glycerol with respect to the controls,[2]; [8],-27%
same,Percent variations of plasma free glycerol with respect to the controls,[2]; [9],-63%
same,Percent variations of plasma free glycerol with respect to the controls,[2]; [10],-7%
same,Percent variations of plasma free glycerol with respect to the controls,[2]; [11],-17%
same,Percent variations of plasma free glycerol with respect to the controls,[2]; [12],-25%
same,Percent variations of plasma free glycerol with respect to the controls,[2]; [13],-4%
same,Percent variations of plasma free glycerol with respect to the controls,[2]; [14],-5%
same,Percent variations of plasma free glycerol with respect to the controls,[2]; [15],+5%
same,Activity on free glycerol,[2],active at the 2nd hour
same,Percent variations of plasma free glycerol with respect to the controls,[2]; [16],-81%
same,Percent variations of plasma free glycerol with respect to the controls,[2]; [17],-47%
same,Percent variations of plasma free glycerol with respect to the controls,[2]; [18],-24%
same,Percent variations of plasma free glycerol with respect to the controls,[2]; [19],-32%
same,Percent variations of plasma free glycerol with respect to the controls,[2]; [20],-41%
same,Percent variations of plasma free glycerol with respect to the controls,[2]; [21],+3%
same,Percent variations of plasma free glycerol with respect to the controls,[2]; [22],0%
same,Percent variations of plasma free glycerol with respect to the controls,[2]; [23],+16%
same,Time within which the effect on free glycerol disappears,[2],within the sixteenth hour
same,Percent variations of plasma cholesterol with respect to the controls,[3]; 4 h,+9%
same,Percent variations of plasma cholesterol with respect to the controls,[3]; 6 h,-4%
same,Percent variations of plasma cholesterol with respect to the controls,[3]; 8 h,-13%
same,Percent variations of plasma cholesterol with respect to the controls,[3]; 10 h,-29%
same,Percent variations of plasma cholesterol with respect to the controls,[3]; 16 h,-53%
same,Percent variations of plasma cholesterol with respect to the controls,[3]; 24 h,-37%
same,Percent variations of plasma cholesterol with respect to the controls,[3]; 32 h,-42%
same,Percent variations of plasma cholesterol with respect to the controls,[3]; 48 h,-29%
same,Cholesterol lowering effect with respect to that of the reference standards,"[3]; 100 mg/kg oral, rat",constantly more relevant
same,Lowering of cholesterolemy,"[3]; 100 mg/kg oral, rat",depresses the cholesterolemy from the eighth to the fortyeighth hour
same,Acute toxicity lower than that of nicotinic acid,rats of both sexes; intraperitoneal route,20 times
same,Acute toxicity lower than that of nicotinic acid,rats of both sexes; oral route,2 times
same,Percent variations of plasma FFA with respect to the controls,plasma levels of FFA; [8],-33%
same,Percent variations of plasma FFA with respect to the controls,plasma levels of FFA; [9],-67%
same,Percent variations of plasma FFA with respect to the controls,plasma levels of FFA; [10],-3%
same,Percent variations of plasma FFA with respect to the controls,plasma levels of FFA; [11],-16%
same,Depression of plasma FFA,"plasma levels of FFA; 30 mg/kg oral, rat",still active in the second hour
same,Percent variations of plasma FFA with respect to the controls,plasma levels of FFA; [16],-74%
same,Percent variations of plasma FFA with respect to the controls,plasma levels of FFA; [17],-41%
same,Percent variations of plasma FFA with respect to the controls,plasma levels of FFA; [18],-28%
same,Percent variations of plasma FFA with respect to the controls,plasma levels of FFA; [19],-43%
same,Percent variations of plasma FFA with respect to the controls,plasma levels of FFA; [20],-40%
same,Percent variations of plasma FFA with respect to the controls,plasma levels of FFA; [21],-7%
same,Percent variations of plasma FFA with respect to the controls,plasma levels of FFA; [22],-2%
same,Time within which the effect on FFA disappears,"plasma levels of FFA; 100 mg/kg oral, rat",≤ 16 h
same,LD50,"in vivo [4]; ip, female",6750 mg/kg
same,LD50,"in vivo [4]; ip, male",6650 mg/kg
same,LD50,"in vivo [4]; po, female, os",> 8000 mg/kg
same,LD50,"in vivo [4]; po, male, os",> 8000 mg/kg
"O=C(O)c1cccnc1 [NICOTINIC ACID, nicotinic acid]",Percent variations of plasma triglycerides with respect to the controls,[1]; [8],-49%
same,Percent variations of plasma triglycerides with respect to the controls,[1]; [9],-49%
same,Percent variations of plasma triglycerides with respect to the controls,[1]; [10],+8%
same,Percent variations of plasma triglycerides with respect to the controls,[1]; [11],+17%
same,Time within which the effect on triglycerides disappears,[1]; 30 mg/kg oral,≤ 4 h
same,Percent variations of plasma triglycerides with respect to the controls,[1]; [16],-57%
same,Percent variations of plasma triglycerides with respect to the controls,[1]; [17],-58%
same,Percent variations of plasma triglycerides with respect to the controls,[1]; [18],-59%
same,Percent variations of plasma triglycerides with respect to the controls,[1]; [19],-38%
same,Percent variations of plasma triglycerides with respect to the controls,[1]; [20],+4%
same,Percent variations of plasma triglycerides with respect to the controls,[1]; [21],+21%
same,Percent variations of plasma triglycerides with respect to the controls,[1]; [22],-16%
same,Time within which the effect on triglycerides disappears,[1]; 100 mg/kg oral,within the tenth hour
same,Percent variations of plasma free glycerol with respect to the controls,[2]; [8],-72%
same,Percent variations of plasma free glycerol with respect to the controls,[2]; [9],-27%
same,Percent variations of plasma free glycerol with respect to the controls,[2]; [10],+16%
same,Percent variations of plasma free glycerol with respect to the controls,[2]; [11],+15%
same,Activity on free glycerol,[2],active only after 1 hour
same,Percent variations of plasma free glycerol with respect to the controls,[2]; [16],-73%
same,Percent variations of plasma free glycerol with respect to the controls,[2]; [17],-71%
same,Percent variations of plasma free glycerol with respect to the controls,[2]; [18],+9%
same,Percent variations of plasma free glycerol with respect to the controls,[2]; [19],+11%
same,Percent variations of plasma free glycerol with respect to the controls,[2]; [20],+16%
same,Percent variations of plasma free glycerol with respect to the controls,[2]; [21],-12%
same,Percent variations of plasma free glycerol with respect to the controls,[2]; [22],-4%
same,Time within which the effect on free glycerol disappears,[2],within the sixth hour
same,"Peak plasma concentration of free nicotinic acid, times higher than that of niceritrole",[5],about two times higher
same,Percent variations of plasma cholesterol with respect to the controls,[3]; 4 h,-12%
same,Percent variations of plasma cholesterol with respect to the controls,[3]; 6 h,-12%
same,Percent variations of plasma cholesterol with respect to the controls,[3]; 8 h,-13%
same,Percent variations of plasma cholesterol with respect to the controls,[3]; 10 h,-17%
same,Percent variations of plasma cholesterol with respect to the controls,[3]; 16 h,-14%
same,Percent variations of plasma cholesterol with respect to the controls,[3]; 24 h,-27%
same,Lowering of cholesterolemy,"[3]; 100 mg/kg oral, rat","lowered at the eighth, tenth and twenty fourth hour"
same,LD50,"[6]; ip, female",296 mg/kg
same,LD50,"[6]; ip, male",328 mg/kg
same,LD50,"[6]; po, female, os",3850 mg/kg
same,LD50,"[6]; po, male, os",3860 mg/kg
same,Percent variations of plasma FFA with respect to the controls,plasma levels of FFA; [8],-81%
same,Percent variations of plasma FFA with respect to the controls,plasma levels of FFA; [9],-43%
same,Percent variations of plasma FFA with respect to the controls,plasma levels of FFA; [10],+23%
same,Percent variations of plasma FFA with respect to the controls,plasma levels of FFA; [11],+11%
same,FFA rebound,"plasma levels of FFA; 30 mg/kg oral, rat",causes FFA rebound in the fourth hour
same,Percent variations of plasma FFA with respect to the controls,plasma levels of FFA; [16],-77%
same,Percent variations of plasma FFA with respect to the controls,plasma levels of FFA; [17],-68%
same,Percent variations of plasma FFA with respect to the controls,plasma levels of FFA; [18],+23%
same,Percent variations of plasma FFA with respect to the controls,plasma levels of FFA; [19],+23%
same,Percent variations of plasma FFA with respect to the controls,plasma levels of FFA; [20],+13%
same,Percent variations of plasma FFA with respect to the controls,plasma levels of FFA; [21],-9%
same,Percent variations of plasma FFA with respect to the controls,plasma levels of FFA; [22],-5%
same,FFA rebound,"plasma levels of FFA; 100 mg/kg oral, rat",eighth
same,Time within which the effect on FFA disappears,"plasma levels of FFA; 100 mg/kg oral, rat",≤ 6 h
same,Tmax,in vivo [7],≤ 30 min
same,concentration at 0.5 h,in vivo [7],108000 ng/mL
same,concentration at 1 h,in vivo [7],106000 ng/mL
same,concentration at 2 h,in vivo [7],98300 ng/mL
same,concentration at 4 h,in vivo [7],10600 ng/mL
same,concentration at 6 h,in vivo [7],760 ng/mL
same,concentration at 8 h,in vivo [7],250 ng/mL
same,concentration at 12 h,in vivo [7],490 ng/mL
same,concentration at 16 h,in vivo [7],120 ng/mL
